Data: patent US8772283B2, “Imidazo-oxazine compound or salt thereof” (Taiho Pharmaceutical Co., Ltd., priority 2011, dated 2014)

How the values were obtained:
human AKT1 = human AKT1 (Homo sapiens (Human), UniProt P31749); assay: AKT1 kinase activity inhibition (TR-FRET, biotinylated Crosstide substrate); type: biochemical; conditions: preincubation 120 min at 25° C.; ATP 150 μM; Crosstide 500 nM
How it was run: (§1)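 Middle-T-tagged human AKT1 or AKT2, Sf9-expressed, affinity-purified and PDK1-activated, was preincubated 120 min at 25 °C with compound in 15 mM Tris-HCl pH 7.5, 0.01% Tween-20, 2 mM DTT. Kinase reaction then ran 60 min with 500 nM biotin-Crosstide, 10 mM MgCl2 and 150 μM ATP before EDTA stop. IC50 came from the Eu/APC TR-FRET 665/620 nm ratio.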

human AKT2 = human AKT2 (Homo sapiens (Human), UniProt P31751); assay: AKT2 kinase activity inhibition (TR-FRET, biotinylated Crosstide substrate); type: biochemical; conditions: preincubation 120 min at 25° C.; ATP 150 μM; Crosstide 500 nM
Sequence of human AKT2 (P31751 whole entry): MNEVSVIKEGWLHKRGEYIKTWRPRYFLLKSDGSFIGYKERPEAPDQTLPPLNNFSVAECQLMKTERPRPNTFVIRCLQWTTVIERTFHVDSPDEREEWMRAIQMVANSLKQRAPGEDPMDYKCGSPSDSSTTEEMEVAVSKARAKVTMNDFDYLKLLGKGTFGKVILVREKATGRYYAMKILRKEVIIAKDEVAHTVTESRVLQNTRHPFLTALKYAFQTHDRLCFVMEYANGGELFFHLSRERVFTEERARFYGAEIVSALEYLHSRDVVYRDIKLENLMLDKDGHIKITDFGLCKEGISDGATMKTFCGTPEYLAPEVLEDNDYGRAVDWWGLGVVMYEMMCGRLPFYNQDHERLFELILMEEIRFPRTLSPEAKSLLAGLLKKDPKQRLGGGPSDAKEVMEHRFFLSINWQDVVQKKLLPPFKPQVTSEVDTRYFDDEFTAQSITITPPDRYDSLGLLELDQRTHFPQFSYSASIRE
How it was run: as §1

[1] = system: AKT Ser473 phosphorylation; assay: Phosphorylated AKT (Ser473) inhibitory activity in cultured cell A2780 (Meso Scale Discovery assay); type: cell-based; conditions: A2780 cells, 3 hours treatment; average±standard deviation of three independent runs
Description: (§2) To evaluate the inhibitory activity of the above compounds against AKT activity, AKT Ser 473 phosphorylation and phosphorylation of S6 ribosomal protein (S6RP) (a downstream factor of Akt signal) at Ser240/Ser244, which serve as indices for the activation status of AKT, were measured in extracts of cultured cells which had been treated with the above compounds. For the measurement, assays (manufactured by Meso Scale Discovery) utilizing electrochemiluminescence based on the ELISA principle were used for both AKT Ser473 and S6RP Ser240/Ser244.
(§3) In 10% FBS-containing RPMI1640 medium (Invitrogen), ovarian cancer-derived A2780 cells in the logarithmic growth phase were seeded at 4.5×10^4 cells/150 μL/well into polylysine coated 96-well flat-bottom plates, and cultured for one day in an incubator at 5% CO2, 37° C., and 100% humidity.
(§4) Each compound of the present invention was supplied as a stock solution prepared at a concentration of 10 mM in DMSO. Using this solution, a dilution series was prepared in DMSO solvent at 200-fold of the final concentrations (10, 3, 1, 0.3, 0.1, 0.03, 0.01, 0.003 μM). The day after the cells were seeded, the compound dilution series at a 200-fold concentration was diluted 50-fold in medium for cell culture. To each well of the aforementioned A2780 cell culture plates, 50 μL of the diluted compound dilution series was added. The plates were then placed back in the incubator, and the culture was continued for 3 hours at 5% CO2, 37° C., and 100% humidity.
(§5) Meso Scale Discovery's 96-Well Multi-Spot Phospho-AKT (Ser473) Assay (K151CAA-3) and Phospho (Ser240/244)/Total S6RP Assay (K11139D-2) were used. In advance, a necessary amount of the supplied cell extract buffer was dispensed, and protease inhibitor cocktail and protein phosphatase inhibitor cocktail were added thereto, and kept cold on ice. The culture plates of the cells cultured with the compounds for 3 hours were taken out and the medium was removed. 100 μL of the cell extract buffer kept cold was added per well, followed by extraction by shaking at 300 r.p.m. for 1 hour using a plate shaker while maintaining a temperature of 4° C. Using the obtained extracts at 40 μL/well for the Phospho-AKT (Ser473) Assay and at 15 μL/well for the Phospho(Ser240/244)/Total S6RP Assay, reactions were conducted at 4° C. overnight with shaking at 300 r.p.m. according to the document attached to the kits. The next day, after the wells were washed three times with the supplied wash buffer, 50 μL/well of SULFO-TAG™ sandwich antibody solution was added, and reactions were carried out at room temperature for 1 hour. The wells were washed with the wash buffer three times, and 150 μL of the supplied Read Buffer T was added to each well. The amounts of phosphorylation of AKT and S6RP were measured by a SECTOR Imager 6000 plate reader (manufactured by Meso Scale Discovery) within 30 minutes of the Read Buffer T addition.
(§6) The extraction buffer-only background was subtracted from all of the measurement values, and AKT and S6RP phosphorylation signals in the control cell extract treated with only DMSO were defined as 100%. The compound concentrations and the levels of phosphorylated AKT and S6PR (expressed as a percentage relative to the control) in each concentration were plotted, and IC50 concentration (nM) that achieves 50% inhibition of the control was determined.

[2] = system: S6 ribosomal protein (S6RP) Ser240/Ser244 phosphorylation; assay: Phosphorylated S6RP (Ser240/Ser244) inhibitory activity in cultured cell A2780 (Meso Scale Discovery assay); type: cell-based; conditions: A2780 cells, 3 hours treatment; average±standard deviation of three independent runs
Description: as §2, §3, §4, §5, §6

Sequence of human AKT1 (P31749 whole entry): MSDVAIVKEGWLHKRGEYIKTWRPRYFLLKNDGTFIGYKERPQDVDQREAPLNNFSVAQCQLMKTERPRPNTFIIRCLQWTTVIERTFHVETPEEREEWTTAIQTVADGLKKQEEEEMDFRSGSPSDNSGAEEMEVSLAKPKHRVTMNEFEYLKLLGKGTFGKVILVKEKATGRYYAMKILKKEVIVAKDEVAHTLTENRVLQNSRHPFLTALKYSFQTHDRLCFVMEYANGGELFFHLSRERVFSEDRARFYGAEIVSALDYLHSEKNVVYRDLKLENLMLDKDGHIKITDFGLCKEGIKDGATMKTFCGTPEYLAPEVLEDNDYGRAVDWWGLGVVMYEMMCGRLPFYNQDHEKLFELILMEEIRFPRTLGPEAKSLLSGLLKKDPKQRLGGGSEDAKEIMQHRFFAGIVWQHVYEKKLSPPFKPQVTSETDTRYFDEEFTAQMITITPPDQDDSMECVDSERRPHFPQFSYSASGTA

| Compound | IC50 (human AKT1) [nM] | IC50 (human AKT2) [nM] | IC50 [1] [nM] | IC50 [2] [nM] |
| --- | --- | --- | --- | --- |
| C[C@]1(O)C[C@@](N)(c2ccc(-c3nc4n(c3-c3ccccc3)COc3ccc(C#N)cc3-4)cc2)C1 [Example 46, 2-(4-(trans-1-amino-3-hydroxy-3-methylcyclobutyl)phenyl)-3-phenyl-5H-benzo[e]imidazo[1,2-c][1,3]oxazine-9-carbonitrile] | 4.4 | 0.97 | 32 ± 5 | 53 ± 6 |
| C[C@]1(O)C[C@@](N)(c2ccc(-c3nc4n(c3-c3ccccc3)COc3ccc(-c5ccn[nH]5)cc3-4)cc2)C1 [Example 48, trans-3-amino-1-methyl-3-(4-(3-phenyl-9-(1H-pyrazol-5-yl)-5H-benzo[e]imidazo[1,2-c][1,3]oxazin-2-yl)phenyl)cyclobutanol] | 0.8 | 0.32 | 48 ± 5 | 86 ± 27 |
| CNC(=O)c1ccc2c(c1)OCn1c-2nc(-c2ccc([C@]3(N)C[C@](C)(O)C3)cc2)c1-c1ccccc1 [Example 56, 2-(4-(trans-1-amino-3-hydroxy-3-methylcyclobutyl)phenyl)-N-methyl-3-phenyl-5H-benzo[e]imidazo[1,2-c][1,3]oxazine-8-carboxamide] | 1.8 | 0.49 | 25 ± 3 | 38 ± 12 |
| CCONC(=O)c1ccc2c(c1)OCn1c-2nc(-c2ccc([C@]3(N)C[C@](C)(O)C3)cc2)c1-c1ccccc1 [Example 59, 2-(4-(trans-1-amino-3-hydroxy-3-methylcyclobutyl)phenyl)-N-ethoxy-3-phenyl-5H-benzo[e]imidazo[1,2-c][1,3]oxazine-8-carboxamide] | 2.1 | 0.53 | 26 ± 3 | 42 ± 14 |
